The text below walks through data of patent publication US20120265121A1, “PHTHALOCYANINE-BASED ANTIFUNGAL AGENTS” (CASE WESTERN RESERVE UNIVERSITY, priority 2011, published 2012).

The test system of data set [1] is C. albicans (strain SC-5134). Briefly: Colony forming unit (CFU) phototoxicity assay. It counts as cell-based, Candida albicans. On the procedure: Colonies Formation Assay: Briefly, the 1 ml of each treatment condition was diluted into 1:10,000, 1:50,000 or 1:100,000 and plated 100 μL onto Sabouraud dextrose agar plate (Becton Dickinson, New Jersey, USA). All plates were incubated at 37° C. and colonies were imaged and counted the following day for each plate/condition.
Pc 4-Photodynamic Treatment Conditions: The phthalocyanine photosensitizer Pc 4 was kindly provided by Dr. Malcolm E. Kenney (Department of Chemistry, Case Western Reserve University, Cleveland, Ohio, USA). Stock solutions (0.5 mM) of Pc 4 were prepared in N′,N′-dimethylformamide (DMF, ThermoFisher, Waltham, Mass., USA) and stored at 4° C. in the dark. C. albicans cultures were incubated with Pc 4 concentrations ranging from 0.1 to 1.0 μM in 1× PBS containing 10% FBS for at least 1 hr at 37° C. in the dark and subsequently irradiated with red light using a light-emitting diode array (EFOS, Mississauga, Ontario, Canada) at a fluence ranging from 1.0 to 2.0 J/cm^2 (1.0 mW/cm^2, λmax ˜670-675 nm) at room temperature.
Colony forming unit (CFU) phototoxicity assay: CFU assay was done as described by Chandra et al. with minor modifications. […] After 24 hours, colonies were counted by eye, and all the percentage of surviving cells from the Pc 4-PDT cultures was normalized against that of cultures exposed to Pc 4 or light alone. […]

Data set [2] has as its system C. albicans (strain SC-5134). Briefly: DNA fragmentation by agarose gel electrophoresis. It counts as cell-based, Candida albicans. How it is done:
Subsequently, C. albicans total chromosomal DNA was extracted using the MasterPure™ Yeast DNA Purification Kit (Epicentre Biotechnologies, Madison, Wis., USA) per the manufacturer's protocol. Extracted DNA concentrations were determined with a spectrophotometer (Nanodrop™ 3000, ThermoFisher Scientific, Waltham, Mass., USA) at a wavelength range of 260-280 nm. DNA (3.0 μg) was loaded onto a 1.0% (w/v) agarose gel (Bioexpress, Kaysbille, Utah, USA) impregnated with ethidium bromide (ThermoFisher, Waltham, Mass., USA) and subjected to electrophoresis. The gel was subsequently visualized using a UV transilluminator (VersaDoc™, Bio-Rad, Hercules, Calif., USA).

Data set [3] relates to C. albicans (strain SC-5134). Briefly: Chromatin condensation by confocal microscopy. Format: cell-based, Candida albicans. The note with it: highest dose of Pc 4-PDT or peroxide, 24 hr after treatment. How it is done: Confocal Microscopy: To investigate the uptake and localization of Pc 4, cells in standard growth medium plus 10% Fetal Bovine Serum (FBS) were loaded with 0.2 μM Pc 4 and incubated for 16 to 18 hr. Thirty minutes prior to imaging Pc 4, 50 nM MitoTracker Red (Invitrogen, Carlsbad, Calif., USA) or 50 μg/mL AlexaFluor 488-conjugated Concanavalin (Con) A (Invitrogen, Carlsbad, Calif., USA) and/or 10 μg/mL Hoechst 33342 (Invitrogen, Carlsbad, Calif., USA) was loaded onto cells. Five to 10 μL of stained cells were placed on a slide with a glass coverslip and all images acquired using an UltraVIEW VoX spinning disk confocal system (PerkinElmer, Waltham, Mass., USA), which was mounted on a Leica DMI6000B microscope (Leica Microsystems, Inc., Bannockburn, Ill., USA) equipped with a HCX PL APO 100×/1.4 oil immersion objective. Confocal images of Pc 4 fluorescence, MitoTracker Red, ConA (or FITC-labeled Annexin V) and Hoechst 33342 were collected using solid-state diode lasers, with 640-nm, 561-nm, 488-nm and 405-nm excitation light, respectively, and with appropriate emission filters.

Another data set deals with T. rubrum. Briefly: Turbidity growth assay of microconidia after Pc 4-PDT. It counts as cell-based, Trichophyton rubrum. The note with it: Pc 4 up to 2 μM, 2.0 J/cm^2. On the procedure:
Terbinafine sensitive (23013) and resistant (MRL666) strains of T. rubrum were grown onto Sabouraud potato agar plate for at least 24 hours at 28° C. Microconidia were separated from most of the hyphae form before treating with Pc 4-PDT.

Data set [4] is classed as in vitro ADME, human. The text has this: Because drug penetration into and through the nail plate is always a challenge in the treatment of onychomycosis, the nail absorption of topically applied Pc 4 was also investigated. […] Considering that these samples were healthy nails, it appears that diseased/dystrophic nails whose barrier functions have been compromised may even have better Pc 4 absorption. Nonetheless, in the clinical protocol, the inventors specified that Pc 4 will be applied not only on the nail plate but also on the exposed subungual tissue and periungual area.

For data set [5] the following is noted: mice, delivered systemically; cited from earlier work.
The conditions of data set [6]: light dose 50 J/cm^2; cited from earlier work.

On to `CN(C)CCC[Si](C)(C)O[Si]1(O)n2c3c4ccccc4c2N=C2N=C(N=c4c5ccccc5c(n41)=NC1=NC(=N3)c3ccccc31)c1ccccc12` (stereo not shown) [Pc 4, HOSiPcOSi(CH3)2(CH2)3N(CH3)2], for which the “cell killing / reduction of cell survival (CFU)” value in data set [1] (1.0 μM Pc 4, light at 2.0 J/cm^2 (670-675 nm)) stood at 4 logs. The “effect of photosensitizer alone on cell proliferation and cell death” value in data set [1] (highest dose of Pc 4, no light, compared to untreated cells) is “neither the highest dose of photosensitizer alone nor light alone affected cell proliferation and cell death”. The DNA fragmentation result in data set [2] (0.4 μM Pc 4-PDT) is given as “clear evidence of DNA degradation”; in data set [2] (0.6 μM Pc 4-PDT), “matched that of the hydrogen peroxide positive control”. In data set [3], the chromatin condensation entry is “detected”. Also, the growth of microconidia entry with T. rubrum (terbinafine resistant strain MRL666) and in the data set on T. rubrum (terbinafine sensitive strain 23013) was “inhibited by Pc 4-PDT in a dose response fashion” throughout. Also, in data set [4], the “Pc 4 fluorescence within the nail plate” value is listed as “significant amount of Pc 4 fluorescence can be detected within the nail plate”. Besides, the “clearance compared with Photofrin” value in data set [5] is “much more rapidly cleared than Photofrin”. Further, in data set [6], the tolerability result was “well-tolerated”.
